Common to all, as to assay type: biochemical
Common to all, as to conditions: HTRF method
On the technique in general: TR-FRET usually uses a lanthanide donor and a delayed reading to cut background.

One experiment has as its target Ret V804L (Homo sapiens (Human), UniProt P07949, V804L). The experiment is described as follows: HTRF kinase inhibition assay, Ret V804L. The source says:
(§1) • 1. […] 1) • 18) Echo (Labcyte, 550) • 3.
(§2) [formula] • Ratiopositive control: average of CEP-32496 readings in all positive control wells • Rationegative control: average of DMSO readings in all negative control wells • Wherein, the chemical name of CEP-32496 is: N-[3-[(6,7-dimethoxy-4-quinazolinyl)oxy]phenyl]-N′-[5-(2,2,2-trifluoro-1,1-dimethylethyl)-3-isoxazolyl]urea. • 4.3 Calculation of the IC50 and Drawing of the inhibition curve of the compound: • The IC50 (half inhibitory concentration) of the compound was obtained using the following non-linear fitting formula: Data analysis was performed using Graphpad 6.0 software. Y=Bottom+(Top−Bottom)/(1+10^((Log IC50−X)*Hill Slope)) • X: compound concentration log value Y: inhibition, % • 5.

In a further experiment the target is CCDC6-RET (Homo sapiens (Human), UniProt P07949+Q16204). The experiment in a line: HTRF kinase inhibition assay, CCDC6-RET.
Sequence of CCDC6-RET (P07949 other isoform, or with tags, fused parts or gaps): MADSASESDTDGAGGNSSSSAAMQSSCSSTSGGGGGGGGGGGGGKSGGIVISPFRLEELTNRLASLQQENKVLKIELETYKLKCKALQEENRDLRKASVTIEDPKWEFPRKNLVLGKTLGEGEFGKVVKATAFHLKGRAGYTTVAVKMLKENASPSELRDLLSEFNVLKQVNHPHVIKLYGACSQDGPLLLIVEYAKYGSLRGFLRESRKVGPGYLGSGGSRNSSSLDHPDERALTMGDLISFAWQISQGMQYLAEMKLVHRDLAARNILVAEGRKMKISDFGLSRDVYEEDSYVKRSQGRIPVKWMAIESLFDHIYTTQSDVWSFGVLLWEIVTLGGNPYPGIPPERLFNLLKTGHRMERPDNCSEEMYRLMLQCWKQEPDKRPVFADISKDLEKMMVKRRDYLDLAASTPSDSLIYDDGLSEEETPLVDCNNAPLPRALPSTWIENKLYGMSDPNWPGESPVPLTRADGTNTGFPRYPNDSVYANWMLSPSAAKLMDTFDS
Excerpt: as §1, §2

The target of a further experiment is Ret V804M (Homo sapiens (Human), UniProt P07949, V804M). The experiment in a line: HTRF kinase inhibition assay, Ret V804M. In outline:
(§3)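 IC50 from non-linear four-parameter (Hill slope) fit of inhibition against log compound concentration.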

For a further experiment, the target named is Ret wt (Homo sapiens (Human), UniProt P07949). The experiment in a line: HTRF kinase inhibition assay, Ret wt. In outline:
as §3

The target in another experiment is Ret M918T (Homo sapiens (Human), UniProt P07949, M918T). The experiment is described as follows: HTRF kinase inhibition assay, Ret M918T.
Sequence of Ret M918T (P07949 29-1114 M918T): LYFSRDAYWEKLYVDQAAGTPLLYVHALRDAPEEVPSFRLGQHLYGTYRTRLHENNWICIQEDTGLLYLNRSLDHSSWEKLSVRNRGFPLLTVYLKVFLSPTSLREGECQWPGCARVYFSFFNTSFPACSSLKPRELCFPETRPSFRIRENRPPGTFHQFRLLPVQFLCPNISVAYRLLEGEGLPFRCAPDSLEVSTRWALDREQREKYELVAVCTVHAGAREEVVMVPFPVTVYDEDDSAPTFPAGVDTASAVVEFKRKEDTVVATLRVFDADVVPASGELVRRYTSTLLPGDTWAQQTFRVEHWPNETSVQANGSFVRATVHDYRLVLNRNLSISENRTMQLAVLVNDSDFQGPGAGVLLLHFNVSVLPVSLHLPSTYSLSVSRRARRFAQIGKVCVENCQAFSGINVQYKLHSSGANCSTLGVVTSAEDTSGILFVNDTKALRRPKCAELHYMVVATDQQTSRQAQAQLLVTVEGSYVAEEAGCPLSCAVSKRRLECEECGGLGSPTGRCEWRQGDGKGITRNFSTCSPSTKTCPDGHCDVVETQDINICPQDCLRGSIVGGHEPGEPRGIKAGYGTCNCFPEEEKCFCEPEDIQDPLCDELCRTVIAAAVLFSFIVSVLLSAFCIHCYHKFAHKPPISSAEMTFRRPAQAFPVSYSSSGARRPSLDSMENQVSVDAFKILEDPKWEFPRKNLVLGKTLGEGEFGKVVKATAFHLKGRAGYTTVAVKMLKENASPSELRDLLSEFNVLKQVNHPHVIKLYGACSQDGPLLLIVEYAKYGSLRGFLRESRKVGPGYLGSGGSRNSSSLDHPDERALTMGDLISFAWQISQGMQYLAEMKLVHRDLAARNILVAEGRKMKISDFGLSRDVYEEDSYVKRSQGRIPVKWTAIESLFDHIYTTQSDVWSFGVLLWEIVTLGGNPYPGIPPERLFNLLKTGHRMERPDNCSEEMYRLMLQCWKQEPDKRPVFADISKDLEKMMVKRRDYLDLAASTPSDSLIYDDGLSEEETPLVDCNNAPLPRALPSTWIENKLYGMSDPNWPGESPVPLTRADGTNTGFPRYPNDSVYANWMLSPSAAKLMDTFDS
Excerpt: as §1, §2

Sequence of Ret wt (P07949 29-1114): as the sequence (P07949 29-1114 M918T) above, with T890M counted along it
Sequence of Ret V804L (P07949 29-1114 V804L): as the sequence (P07949 29-1114 M918T) above, with V776L, T890M counted along it
Sequence of Ret V804M (P07949 29-1114 V804M): as the sequence (P07949 29-1114 M918T) above, with V776M, T890M counted along it

What is called IC50 is the concentration that inhibits the measured activity by half. A low value points to higher potency. As to `C#Cc1cccc(C(=O)NC2(C)CCN(c3ccc(-c4cc(-c5cnn(C)c5)cn5ncc(C#N)c45)cn3)CC2)c1` [Example 4, N-(1-(5-(3-cyano-6-(1-methyl-1H-pyrazol-4-yl)pyrazolo[1,5-a]pyridin-4-yl)pyridin-2-yl)-4-methylpiperidin-4-yl)-3-ethynylbenzamide], the IC50 at Ret V804L was 0.2 nM; against CCDC6-RET, 0.6 nM; against Ret V804M, 2.3 nM; on Ret wt it was 0.27 nM; on Ret M918T, 2.8 nM.

For the compound `C#Cc1ccc(C(=O)N2CCN(c3ccc(-c4cc(-c5cnn(C)c5)cn5ncc(C#N)c45)cn3)CC2)cc1` [Example 3, 3-cyano-4-(6-(4-(4-ethynylbenzoyl)piperazin-1-yl)pyridin-3-yl)-6-(1-methyl-1H-pyrazol-4-yl)pyrazolo[1,5-a]pyridine], the half-maximal inhibitory concentration (IC50) at Ret V804L was 0.3 nM; against CCDC6-RET it was 0.8 nM; against Ret V804M it was 16.6 nM; against Ret wt it was 0.27 nM; at Ret M918T it was 0.7 nM.

With `COc1cncc(C#CCN2C3CC2CN(c2ccc(-c4cc(-c5cnn(C)c5)cn5ncc(C#N)c45)cn2)C3)c1` [Example 215, 4-(6-(6-(3-(5-methoxypyridin-3-yl)prop-2-yn-1-yl)-3,6-diazabicyclo[3.1.1]heptane-3-yl)pyridin-3-yl)-6-(1-methyl-1H-pyrazol-4-yl)pyrazolo[1,5-a]pyridin-3-carbonitrile], the IC50 stood at 0.06 nM against Ret V804L; 0.16 nM at CCDC6-RET; 0.42 nM on Ret V804M; 0.16 nM at Ret wt; 0.183 nM on Ret M918T.

Consider `COc1ccc(C#CCN2C3CC2CN(c2ccc(-c4cc(-c5cnn(C)c5)cn5ncc(C#N)c45)cn2)C3)cn1` [Example 194, 4-(6-(6-(3-(6-methoxypyridin-3-yl)prop-2-yn-1-yl)-3,6-diazabicyclo[3.1.1]heptane-3-yl)pyridin-3-yl)-6-(1-methyl-1H-pyrazol-4-yl)pyrazolo[1,5-a]pyridin-3-carbonitrile], for which the IC50 at Ret V804L was 0.23 nM; against CCDC6-RET it was 0.26 nM; against Ret V804M it was 7.07 nM; against Ret wt, 0.68 nM; on Ret M918T, 0.62 nM.

With `Cn1cc(-c2cc(-c3ccc(N4CCN(C(=O)C#Cc5ccccc5)CC4)nc3)c3c(C#N)cnn3c2)cn1` [Example 1, 3-cyano-6-(1-methyl-1H-pyrazol-4-yl)-4-(6-(4-(3-phenylpropioloyl)piperazin-1-yl)pyridine-3-yl)pyrazolo[1,5-a]pyridine], the IC50 at Ret V804L stood at 0.95 nM; against CCDC6-RET it was 0.87 nM; against Ret V804M, 5.53 nM; on Ret wt, 0.61 nM; at Ret M918T, 0.97 nM.

Consider `COc1cncc(C#CC(=O)N2CCN(c3ccc(-c4cc(-c5cnn(C)c5)cn5ncc(C#N)c45)cn3)CC2)c1` [Example 272, 4-(6-(4-(3-(5-methoxypyridin-3-yl)propioloyl)piperazin-1-yl)pyridin-3-yl)-6-(1-methyl-1H-pyrazol-4-yl)pyrazolo[1,5-a]pyridine-3-carbonitrile], for which the IC50 worked out at 5.26 nM against Ret V804M and 0.72 nM against Ret wt.

The record behind these values is patent publication US12209085B2, “RET inhibitors, pharmaceutical compositions and uses thereof” (SUNSHINE LAKE PHARMA CO., LTD., priority 2018, dated 2025).
